Results reported in patent publication US7425556B2 (priority 2005, dated 2008).

Key:
MT1 Receptor = MT1 Receptor (Homo sapiens, UniProt P48039); assay: biochemical; assay type: binding; conditions: for Ki: read-out: MT1 Receptor Binding Ki
[1] = molecular target: human Melatonin receptor 1 (MT1) (Homo sapiens, UniProt P48039); assay: biochemical; conditions: for MT1 Receptor GTPgS Emax: efficacy, 100% effect = 3 nM 2-Iodomelatonin, 0% = vehicle; for EC50: hMT1/HEK293F membranes, agonist potency, read-out: MT1 Receptor GTPgS EC50; for Emax: read-out: MT1 Receptor GTPgS Emax
Procedure: Method II MT1 GTPγ^35S-SPA Assay Test Validation Standards
Test compounds were synthesized in house. […] 2 μl of diluted compounds were transferred to Optic-assay-plates.
(Freshly add protease inhibitor cocktail tables from Roche). […] The protein concentration of the membrane was determined. The membranes were aliquoted and stored at −80° C.
• MAX response (100% effect) was determined as the effect of 3 nM of 2-lodomelatonin. • MIN response (0% effect) was determined as the effect of vehicle control. Description of Experimental Procedure
The final concentration of GTPγ^35S was 200 pM.

[2] = molecular target: T1, GABAA2 receptors (α2, β3, γ2 receptor subunits) (Homo sapiens, UniProt P18507+P47869); assay: biochemical; conditions: [3H]-Flunitrazepam ~2 nM, α2β3γ2 Sf9 membranes, 1 hr at 4° C.; read-out: GABAA2 Binding Ki
T1 construct: host or cells: Sf9 cells (membranes)

[3] = molecular target: T2, GABAA1 (human α1β2γ2 GABAA receptor) (Homo sapiens, UniProt P14867+P18507); assay: Two-electrode voltage-clamp in Xenopus oocytes, potentiation of GABA EC10 current, GABAA1; assay type: cell-based; conditions: percentage potentiation of GABA EC10 current divided by that of diazepam
T2 construct: expressed in transfected cells; host or cells: Xenopus laevis oocytes injected with capped cRNA

[4] = molecular target: T3, GABAA2 (human α2β3γ2 GABAA receptor) (Homo sapiens, UniProt P18507+P47869); assay: Two-electrode voltage-clamp in Xenopus oocytes, potentiation of GABA EC10 current, GABAA2; assay type: cell-based; conditions: percentage potentiation of GABA EC10 current divided by that of diazepam
T3 construct: expressed in transfected cells; host or cells: Xenopus laevis oocytes injected with capped cRNA
T3 sequence (P47869 29-451): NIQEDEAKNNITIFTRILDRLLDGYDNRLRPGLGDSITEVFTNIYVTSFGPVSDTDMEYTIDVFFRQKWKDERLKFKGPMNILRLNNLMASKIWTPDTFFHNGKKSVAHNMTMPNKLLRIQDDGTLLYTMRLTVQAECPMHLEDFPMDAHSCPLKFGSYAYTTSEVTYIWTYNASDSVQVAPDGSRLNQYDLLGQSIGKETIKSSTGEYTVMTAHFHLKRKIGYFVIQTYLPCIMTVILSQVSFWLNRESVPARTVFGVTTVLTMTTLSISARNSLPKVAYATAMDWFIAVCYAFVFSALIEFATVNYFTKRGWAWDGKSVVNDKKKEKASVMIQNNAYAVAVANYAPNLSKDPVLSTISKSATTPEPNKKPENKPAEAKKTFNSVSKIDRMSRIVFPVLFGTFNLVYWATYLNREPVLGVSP
T3 sequence (P28472 26-473 partner): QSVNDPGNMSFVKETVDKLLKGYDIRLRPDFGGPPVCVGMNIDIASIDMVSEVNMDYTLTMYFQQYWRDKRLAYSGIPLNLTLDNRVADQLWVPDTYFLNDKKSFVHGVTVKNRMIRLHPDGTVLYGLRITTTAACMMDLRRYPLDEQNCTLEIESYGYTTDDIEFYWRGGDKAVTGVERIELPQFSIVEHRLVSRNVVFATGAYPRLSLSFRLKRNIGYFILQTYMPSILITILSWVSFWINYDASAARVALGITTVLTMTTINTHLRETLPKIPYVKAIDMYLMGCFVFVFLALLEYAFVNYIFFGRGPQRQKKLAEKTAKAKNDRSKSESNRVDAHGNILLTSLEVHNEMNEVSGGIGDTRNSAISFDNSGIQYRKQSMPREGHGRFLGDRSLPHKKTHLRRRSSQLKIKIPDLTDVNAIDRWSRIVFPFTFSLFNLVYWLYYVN
T3 sequence (P18507 40-475): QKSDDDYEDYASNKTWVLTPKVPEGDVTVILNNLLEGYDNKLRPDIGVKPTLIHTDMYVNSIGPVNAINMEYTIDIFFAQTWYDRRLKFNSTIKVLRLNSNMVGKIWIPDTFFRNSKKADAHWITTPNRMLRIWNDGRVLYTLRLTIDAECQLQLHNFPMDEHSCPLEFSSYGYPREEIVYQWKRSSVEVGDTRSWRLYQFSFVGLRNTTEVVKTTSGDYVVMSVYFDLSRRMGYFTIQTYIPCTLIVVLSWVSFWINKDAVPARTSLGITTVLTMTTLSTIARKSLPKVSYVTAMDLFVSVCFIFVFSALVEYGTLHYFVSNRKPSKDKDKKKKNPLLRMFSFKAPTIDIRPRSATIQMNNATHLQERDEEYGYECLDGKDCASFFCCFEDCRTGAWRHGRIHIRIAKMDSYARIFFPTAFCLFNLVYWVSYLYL

T1 sequence (P47869 29-451): as the sequence (P47869 29-451) above
T1 sequence (P28472 26-473 partner): as the sequence (P28472 26-473 partner) above
T1 sequence (P18507 40-475): as the sequence (P18507 40-475) above
T2 sequence (P14867 28-456): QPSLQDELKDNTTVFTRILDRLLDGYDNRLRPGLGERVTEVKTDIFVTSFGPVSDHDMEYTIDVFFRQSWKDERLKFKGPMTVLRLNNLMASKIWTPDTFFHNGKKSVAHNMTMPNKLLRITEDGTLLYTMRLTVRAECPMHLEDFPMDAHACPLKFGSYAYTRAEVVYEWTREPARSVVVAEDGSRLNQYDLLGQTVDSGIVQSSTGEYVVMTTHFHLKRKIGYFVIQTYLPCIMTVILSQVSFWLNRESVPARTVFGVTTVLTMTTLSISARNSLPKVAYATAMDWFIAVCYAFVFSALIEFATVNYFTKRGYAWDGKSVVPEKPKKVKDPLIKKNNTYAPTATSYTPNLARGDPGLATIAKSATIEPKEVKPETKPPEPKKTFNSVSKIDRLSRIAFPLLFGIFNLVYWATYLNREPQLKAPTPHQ
T2 sequence (P47870 25-512 partner limits assumed): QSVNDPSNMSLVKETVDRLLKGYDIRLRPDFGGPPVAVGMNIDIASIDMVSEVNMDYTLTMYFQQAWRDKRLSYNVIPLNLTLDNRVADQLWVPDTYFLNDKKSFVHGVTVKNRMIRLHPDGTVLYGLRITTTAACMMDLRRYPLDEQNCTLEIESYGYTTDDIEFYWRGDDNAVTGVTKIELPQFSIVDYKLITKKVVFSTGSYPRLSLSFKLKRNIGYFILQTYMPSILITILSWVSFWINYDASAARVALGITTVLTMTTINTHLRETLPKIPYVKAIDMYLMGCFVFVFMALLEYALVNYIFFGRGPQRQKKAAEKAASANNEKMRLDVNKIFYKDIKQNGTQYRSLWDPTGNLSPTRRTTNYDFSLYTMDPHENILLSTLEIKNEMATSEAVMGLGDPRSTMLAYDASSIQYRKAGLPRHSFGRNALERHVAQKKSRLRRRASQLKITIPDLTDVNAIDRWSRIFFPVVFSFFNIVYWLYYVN
T2 sequence (P18507 40-475): as the sequence (P18507 40-475) above
MT1 Receptor, sequence (P48039 whole entry): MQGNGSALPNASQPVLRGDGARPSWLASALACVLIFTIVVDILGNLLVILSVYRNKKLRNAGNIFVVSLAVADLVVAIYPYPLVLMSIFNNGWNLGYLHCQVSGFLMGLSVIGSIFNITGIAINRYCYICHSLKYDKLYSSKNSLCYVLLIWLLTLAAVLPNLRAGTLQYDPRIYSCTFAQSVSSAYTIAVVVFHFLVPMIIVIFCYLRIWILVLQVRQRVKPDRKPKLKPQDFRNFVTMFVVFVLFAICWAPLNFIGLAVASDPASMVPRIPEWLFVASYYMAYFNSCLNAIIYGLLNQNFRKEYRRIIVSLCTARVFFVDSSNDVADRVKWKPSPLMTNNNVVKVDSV
human Melatonin receptor 1 (MT1), sequence (P48039 whole entry): as above

Structure (SMILES) | Emax [1] [%] | Ki [2] [nM] | Relative Potentiation for GABAA1 [3] | Relative Potentiation for GABAA2 [4] | also measured
CCCNC(=O)c1nnc2c(-c3cc(OC)ccc3OC)cccc2c1N [drawing 417] |  |  |  |  | MT1 Receptor Binding % Inhibition at 1 μM (MT1 Receptor; at 1 μM): 86%; Ki (MT1 Receptor): 60 nM; MT1 Receptor GTPgS Emax [1]: 100; EC50 [1]: 37.5 nM
CCCNC(=O)c1nnc2c(-c3cnc(OC)nc3OC)cccc2c1N | 70 |  |  |  | 
CCCNC(=O)c1nnc2c(-c3cc(OC)ccc3OC)cccc2c1N [drawing 421] |  |  |  |  | inhibition at 1 µM (MT1 Receptor; at 1 μM, read-out: MT1 Receptor Binding % Inhibition at 1 μM): 91%; Ki (MT1 Receptor): 36 nM; MT1 Receptor GTPgS Emax [1]: 61; EC50 [1]: 26.7 nM
CCCNC(=O)c1nnc2c(-c3cnccc3OC)cccc2c1N | 64 |  |  |  | 
CCCNC(=O)c1nnc2c(-c3cc(OC)ccc3OC)c(F)ccc2c1N | 64 |  |  |  | Ki (MT1 Receptor): 31 nM; EC50 [1]: 23.6 nM
CCCNC(=O)c1nnc2c(-c3cccc(OC)c3)cccc2c1N |  | 4.34 | 0.13 | 0.22 | 
CCCNC(=O)c1nnc2c(-c3cnc(OC)c(Cl)c3)cccc2c1N |  | 25.4 | 0.086 | 0.04 | 
Nc1c(C(=O)NCC2CC2)nnc2c(-c3ccccc3)cccc12 |  | 18.6 | 0.11 | 0.24 | 
CCCNC(=O)c1nnc2c(-c3cccc(C(=O)O)c3)cccc2c1N |  | 53.8 | −0.038 | 0.08 | 
CCCNC(=O)c1nnc2c(-c3cc(C)ccc3OC)cccc2c1N | 61 |  |  |  | 
CCCNC(=O)c1nnc2c(-c3ccc(OC)c(F)c3)cccc2c1N |  | 20.2 | 0.03 | 0.19 | 
CCCNC(=O)c1nnc2c(-c3ccc(C)c(C)c3)cccc2c1N |  | 16.8 | 0.23 | 0.35 | 
